Assays:
[1] = Lipophilicity (LogD, pH 7.4), shake-flask method; assay type: physicochemical; details: octanol/PBS pH 7.4, shake-flask
Experimental: The lipophilicity (LogD, pH 7.4) was estimated by the “shake-flask” method (S3 Appendix).
The mixture was vortexed for 1 h to reach the equilibrium and then centrifuged (3000 rpm) for 10 min. From each phase, an aliquot (100 μL) was pipetted out and measured in a γ-counter. Each measurement was repeated five times. Care was taken to avoid cross-contamination between the phases. The partition coefficient was calculated as the average log ratio of the radioactivity in the organic fraction and the PBS fraction.

PSMA on LNCaP cells = biological target: T1, PSMA on LNCaP cells (Homo sapiens, UniProt Q04609); assay: Saturation binding study on intact LNCaP cells; details: 120 min at 4°C
T1 construct: host or cells: LNCaP cells
T1 sequence (Q04609 whole entry): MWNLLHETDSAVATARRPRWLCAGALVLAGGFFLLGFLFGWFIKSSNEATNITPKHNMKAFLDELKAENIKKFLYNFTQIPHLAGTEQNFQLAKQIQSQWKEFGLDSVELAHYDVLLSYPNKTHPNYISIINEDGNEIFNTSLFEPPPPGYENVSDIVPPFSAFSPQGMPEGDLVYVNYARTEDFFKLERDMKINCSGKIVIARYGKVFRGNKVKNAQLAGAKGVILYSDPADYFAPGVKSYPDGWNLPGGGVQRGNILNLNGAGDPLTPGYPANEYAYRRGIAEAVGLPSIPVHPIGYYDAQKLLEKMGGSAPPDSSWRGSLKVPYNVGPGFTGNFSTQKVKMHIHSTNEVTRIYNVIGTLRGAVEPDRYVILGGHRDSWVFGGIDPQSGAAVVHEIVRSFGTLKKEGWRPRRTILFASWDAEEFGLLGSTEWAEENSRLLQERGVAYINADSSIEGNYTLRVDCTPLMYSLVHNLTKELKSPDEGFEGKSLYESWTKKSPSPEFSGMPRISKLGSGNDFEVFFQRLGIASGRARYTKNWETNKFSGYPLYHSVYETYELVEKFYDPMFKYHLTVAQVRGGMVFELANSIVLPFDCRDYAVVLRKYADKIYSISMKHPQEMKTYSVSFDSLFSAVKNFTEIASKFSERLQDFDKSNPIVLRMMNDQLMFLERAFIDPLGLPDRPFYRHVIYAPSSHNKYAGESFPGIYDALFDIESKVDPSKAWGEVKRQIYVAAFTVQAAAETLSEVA
Experimental: The next day, the medium was removed, the cells washed and incubated for 1 h at 37°C with fresh binding buffer (RPMI Medium 1640-GlutaMAX containing 1% FBS, 100 U/mL penicillin and 100 μg/mL streptomycin, 50 mM Hepes, 50 μg/mL bacitracin, 0.5% BSA). Afterwards, the plates were placed on ice for 30 min followed by incubation with increasing concentrations of either ^68/natGa-CC34, ^64/natCu-CC34, ^111/natIn-CC34 and ^111/[…]-617 (1-100 nM) in phosphate-buffered saline binding buffer pH 7.4. After the addition of the radioligands, the cells were incubated for 120 min at 4°C. […] The cells were washed twice with ice-cold PBS, followed by solubilization with 1 N NaOH and the cell-associated radioactivity was measured using a gamma-counter. Specific binding was plotted against the total molar concentration of the added radiotracer. […] For all the cell studies the values are normalized for 1x10^6 cells per well and all data are from two independent experiments with triplicates in each experiment.

LNCaP xenografts = assay: Biodistribution in LNCaP xenografts; assay type: in vivo, Balb/C nude mice; details: for Adrenal (biodistribution) / Blood (biodistribution) / Heart (biodistribution) / Intestine (biodistribution) / Kidney (biodistribution) / LNCaP-tumor (tumor uptake, biodistribution) / Lung (biodistribution) / Muscle (biodistribution) / Pancreas (biodistribution) / Spleen (biodistribution) / Stomach (biodistribution) / Bone (biodistribution) / Liver (biodistribution) / Tumor/blood / Tumor/kidney / Tumor/muscle: 10 pmol i.v., LNCaP mice; for Tumor/blood / Tumor/kidney / Tumor/muscle: ratio
Experimental: Female athymic Balb/C nude mice (age: 4–6 weeks, weight: 17–20 g) were purchased from Janvier, France. […] All animal experiments were conducted in strict accordance with the recommendations in the Guide for the Care and Use of Laboratory Animals of the National Institutes of Health. […]

[2] = 1 h p.i. blocked (co-injected 20 nmol PMPA)

For O=C([O-])CN(CCN(CC(=O)[O-])Cc1cc(CCC(=O)NCCCCCC(=O)NCCCC[C@H](NC(=O)N[C@@H](CCC(=O)O)C(=O)O)C(=O)O)ccc1[O-])Cc1cc(CCC(=O)O)ccc1[O-].[68Ga+3].[OH3+] [^68Ga-HBED-CC-PSMA, HBED-CC-Ahx-Lys-NH-CO-NH-Glu], the LogDoctanol/PBS [1] was -4.06 ± 0.10, the “Bmax (maximum number of binding sites)” value (PSMA on LNCaP cells) was 0.41 ± 0.02 nM and the Kd (PSMA on LNCaP cells; non-specific binding with 1 μM PMPA, read-out: Kd (dissociation constant)) was 2.9 ± 0.6 nM. For the same compound, the “Adrenal (biodistribution)” value (LNCaP xenografts; [2]) was 1.1±0.5 %IA/g, the “Blood (biodistribution)” value (LNCaP xenografts; [2]) was 0.4±0.04 %IA/g and the “Heart (biodistribution)” value (LNCaP xenografts; [2]) was 0.2±0.06 %IA/g. For the same compound, the “Intestine (biodistribution)” value (LNCaP xenografts; [2]) was 0.3±0.04 %IA/g, the “Kidney (biodistribution)” value (LNCaP xenografts; [2]) was 11±3 %IA/g and the “LNCaP-tumor (tumor uptake, biodistribution)” value (“LNCaP-tumor” below) (LNCaP xenografts; [2]) was 4.1±1.2 %IA/g. The “Lung (biodistribution)” value (LNCaP xenografts; [2]) was 0.7±0.2 %IA/g, the “Muscle (biodistribution)” value (LNCaP xenografts; [2]) was 0.2±0.1 %IA/g and the “Pancreas (biodistribution)” value (LNCaP xenografts; [2]) was 0.3±0.04 %IA/g. For the same compound, the “Spleen (biodistribution)” value (LNCaP xenografts; [2]) was 2.1±0.06 %IA/g, the “Stomach (biodistribution)” value (LNCaP xenografts; [2]) was 0.3±0.01 %IA/g and the “Adrenal (biodistribution)” value (LNCaP xenografts; 1 h p.i.) was 23±4 %IA/g. The “Blood (biodistribution)” value (LNCaP xenografts; 1 h p.i.) was 0.2±0.04 %IA/g, the “Bone (biodistribution)” value (LNCaP xenografts; 1 h p.i.) was 0.5±0.05 %IA/g and the “Heart (biodistribution)” value (LNCaP xenografts; 1 h p.i.) was 0.6±0.06 %IA/g. For the same compound, the “Intestine (biodistribution)” value (LNCaP xenografts; 1 h p.i.) was 0.5±0.1 %IA/g, the “Kidney (biodistribution)” value (LNCaP xenografts; 1 h p.i.) was 208±4 %IA/g and the “LNCaP-tumor” value (LNCaP xenografts; 1 h p.i.) was 15.8±1.4 %IA/g. The “Liver (biodistribution)” value (LNCaP xenografts; 1 h p.i.) was 0.4±0.01 %IA/g, the “Lung (biodistribution)” value (LNCaP xenografts; 1 h p.i.) was 3.5±0.2 %IA/g and the “Muscle (biodistribution)” value (LNCaP xenografts; 1 h p.i.) was 0.6±0.06 %IA/g. For the same compound, the “Pancreas (biodistribution)” value (LNCaP xenografts; 1 h p.i.) was 1.4±0.3 %IA/g, the “Spleen (biodistribution)” value (LNCaP xenografts; 1 h p.i.) was 31±6 %IA/g and the “Stomach (biodistribution)” value (LNCaP xenografts; 1 h p.i.) was 0.7±0.1 %IA/g. For the same compound, the “Adrenal (biodistribution)” value (LNCaP xenografts; 2 h p.i.) was 23±0.8 %IA/g, the “Bone (biodistribution)” value (LNCaP xenografts; 2 h p.i.) was 0.4±0.2 %IA/g and the “Heart (biodistribution)” value (LNCaP xenografts; 2 h p.i.) was 0.6±0.02 %IA/g. For the same compound, the “Intestine (biodistribution)” value (LNCaP xenografts; 2 h p.i.) was 0.5±0.2 %IA/g, the “Kidney (biodistribution)” value (LNCaP xenografts; 2 h p.i.) was 211±29 %IA/g and the “LNCaP-tumor” value (LNCaP xenografts; 2 h p.i.) was 14.8±2.2 %IA/g. For the same compound, the “Liver (biodistribution)” value (LNCaP xenografts; 2 h p.i.) was 0.4±0.05 %IA/g, the “Lung (biodistribution)” value (LNCaP xenografts; 2 h p.i.) was 3.2±0.2 %IA/g and the “Muscle (biodistribution)” value (LNCaP xenografts; 2 h p.i.) was 0.6±0.2 %IA/g. For the same compound, the “Pancreas (biodistribution)” value (LNCaP xenografts; 2 h p.i.) was 2±0.5 %IA/g, the “Spleen (biodistribution)” value (LNCaP xenografts; 2 h p.i.) was 29±2 %IA/g and the “Stomach (biodistribution)” value (LNCaP xenografts; 2 h p.i.) was 1±0.6 %IA/g. The “reduction of the tumor uptake (blocking)” value (LNCaP xenografts; LNCaP tumor, 1 h p.i., co-injection of 20 nmol PMPA) was “about 75%”, the Tumor/blood (LNCaP xenografts; 1 h p.i.) was 68±4 and the Tumor/kidney (LNCaP xenografts; 1 h p.i.) was 0.08±0.01. It also gave a Tumor/muscle (LNCaP xenografts; 1 h p.i.) of 29±6, a Tumor/blood (LNCaP xenografts; 2 h p.i.) of 83±15 and a Tumor/kidney (LNCaP xenografts; 2 h p.i.) of 0.07±0.02. For the same compound, the Tumor/muscle (LNCaP xenografts; 2 h p.i.) was 24±3.

Source: paper PMC4689406, “(R)-NODAGA-PSMA: A Versatile Precursor for Radiometal Labeling and Nuclear Imaging of PSMA-Positive Tumors” (PLoS ONE, 2015)
